Columns and labels:
Type in all cases: in vivo
[1] = system: barnyardgrass (Echinochloa crus-galli, ECHCG); assay: Pre-emerge greenhouse herbicide activity screening, phytotoxicity rating; conditions: 14 days after application
Method in brief: (§1)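 Pre-emerge: seeds sown 1 day before spray; acetone solutions, 15–1000 g ai/ha, track sprayer; soil watered after application, then bottom-watered. Post-emerge: plants at 2-3 leaf stage (sown 8-21 days prior), 0.25% v/v non-ionic surfactant added, bottom-watered only. Rated 0-100 at 14 DAA.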

[2] = system: common ragweed (Ambrosia artemisiifolia L., AMBEL); assay: as above; conditions: 14 days after application
Method in brief: as §1

[3] = system: green foxtail (Setaria viridis, SETVI); assay: as above; conditions: 14 days after application
Method in brief: as §1

[4] = system: ivyleaf morningglory (Ipomoea hederacea, IPOHE); assay: as above; conditions: 14 days after application
Method in brief: as §1

[5] = system: johnsongrass (Sorghum halepense, SORHA); assay: as above; conditions: 14 days after application
Method in brief: as §1

[6] = system: lambsquarters (Chenopodium album, CHEAL); assay: as above; conditions: 14 days after application
Method in brief: as §1

[7] = system: large crabgrass (Digitaria sanguinalis, DIGSA); assay: as above; conditions: 14 days after application
Method in brief: as §1

[8] = system: redroot pigweed (Amaranthus retroflexus, AMARE); assay: as above; conditions: 14 days after application
Method in brief: as §1

[9] = system: sicklepod (Cassia obtusifolia, CASOB); assay: as above; conditions: 14 days after application
Method in brief: as §1

[10] = system: velvetleaf (Abutilon theophrasti, ABUTH); assay: as above; conditions: 14 days after application
Method in brief: as §1

[11] = system: field corn (Zea mays L., var. Dekalb 535, CORN); assay: Pre-emerge greenhouse screening, crop safety (phytotoxicity rating); conditions: 14 days after application
Method in brief: as §1

[12] = system: soybean (Glycine max L., var. Pella 86, SOY); assay: as above; conditions: 14 days after application
Method in brief: as §1

[13] = system: upland rice (Oryza sp., var.Tebonnet, RICE); assay: as above; conditions: 14 days after application
Method in brief: as §1

[14] = system: barnyardgrass (Echinochloa crus-galli, ECHCG); assay: Post-emerge greenhouse herbicide activity screening, phytotoxicity rating; conditions: 14 days after application
Method in brief: as §1

[15] = system: common ragweed (Ambrosia artemisiifolia L., AMBEL); assay: as above
Method in brief: as §1

[16] = system: green foxtail (Setaria viridis, SETVI); assay: as above
Method in brief: as §1

[17] = system: ivyleaf morningglory (Ipomoea hederacea, IPOHE); assay: as above; conditions: 14 days after application
Method in brief: as §1

[18] = system: johnsongrass (Sorghum halepense, SORHA); assay: as above; conditions: 14 days after application
Method in brief: as §1

[19] = system: lambsquarters (Chenopodium album, CHEAL); assay: as above
Method in brief: as §1

[20] = system: large crabgrass (Digitaria sanguinalis, DIGSA); assay: as above; conditions: 14 days after application
Method in brief: as §1

[21] = system: redroot pigweed (Amaranthus retroflexus, AMARE); assay: as above
Method in brief: as §1

[22] = system: sicklepod (Cassia obtusifolia, CASOB); assay: as above
Method in brief: as §1

[23] = system: velvetleaf (Abutilon theophrasti, ABUTH); assay: as above; conditions: 14 days after application
Method in brief: as §1

[24] = system: field corn (Zea mays L., var. Dekalb 535, CORN); assay: Post-emerge greenhouse screening, crop safety / corn selectivity (phytotoxicity rating); conditions: for CORN crop damage, phytotoxicity rating (0-100 scale): 14 days after application
Method in brief: as §1

[25] = system: soybean (Glycine max L., var. Pella 86, SOY); assay: Post-emerge greenhouse screening, crop safety (phytotoxicity rating); conditions: 14 days after application
Method in brief: as §1

[26] = system: upland rice (Oryza sp., var.Tebonnet, RICE); assay: as above; conditions: 14 days after application
Method in brief: as §1

[27] = 125 g ai/ha, 14 days after application
[28] = 250 g ai/ha, 14 days after application

Fc1cc(Cl)c(Oc2ncccn2)cc1-c1nn2c(c1Br)CCCC2 [Compound 6-2]
ECHCG phytotoxicity rating (0-100 scale) ([1]; 125 g ai/ha): 99 | ECHCG phytotoxicity rating (0-100 scale) ([1]; 250 g ai/ha): 100 | AMBEL phytotoxicity rating (0-100 scale) ([2]; 125 g ai/ha): 99 | AMBEL phytotoxicity rating (0-100 scale) ([2]; 250 g ai/ha): 100 | SETVI phytotoxicity rating (0-100 scale) ([3]; 125 g ai/ha): 100 | SETVI phytotoxicity rating (0-100 scale) ([3]; 250 g ai/ha): 100 | IPOHE phytotoxicity rating (0-100 scale) ([4]; 125 g ai/ha): 85 | IPOHE phytotoxicity rating (0-100 scale) ([4]; 250 g ai/ha): 100 | SORHA phytotoxicity rating (0-100 scale) ([5]; 125 g ai/ha): 100 | SORHA phytotoxicity rating (0-100 scale) ([5]; 250 g ai/ha): 100 | CHEAL phytotoxicity rating (0-100 scale) ([6]; 125 g ai/ha): 100 | CHEAL phytotoxicity rating (0-100 scale) ([6]; 250 g ai/ha): 100 | DIGSA phytotoxicity rating (0-100 scale) ([7]; 125 g ai/ha): 100 | DIGSA phytotoxicity rating (0-100 scale) ([7]; 250 g ai/ha): 100 | AMARE phytotoxicity rating (0-100 scale) ([8]; 125 g ai/ha): 100 | AMARE phytotoxicity rating (0-100 scale) ([8]; 250 g ai/ha): 100 | CASOB phytotoxicity rating (0-100 scale) ([9]; 125 g ai/ha): 100 | CASOB phytotoxicity rating (0-100 scale) ([9]; 250 g ai/ha): 100 | ABUTH phytotoxicity rating (0-100 scale) ([10]; 125 g ai/ha): 100 | ABUTH phytotoxicity rating (0-100 scale) ([10]; 250 g ai/ha): 100 | CORN crop damage, phytotoxicity rating (0-100 scale) ([11]; 125 g ai/ha): 20 | CORN crop damage, phytotoxicity rating (0-100 scale) ([11]; 250 g ai/ha): 40 | SOY crop damage, phytotoxicity rating (0-100 scale) ([12]; 125 g ai/ha): 25 | SOY crop damage, phytotoxicity rating (0-100 scale) ([12]; 250 g ai/ha): 40 | RICE crop damage, phytotoxicity rating (0-100 scale) ([13]; 125 g ai/ha): 60 | RICE crop damage, phytotoxicity rating (0-100 scale) ([13]; 250 g ai/ha): 75 | ECHCG phytotoxicity rating (0-100 scale) ([14]; 125 g ai/ha): 90 | ECHCG phytotoxicity rating (0-100 scale) ([14]; 250 g ai/ha): 95 | AMBEL phytotoxicity rating (0-100 scale) ([15]; 31.3 g ai/ha): 80 | AMBEL phytotoxicity rating (0-100 scale) ([15]; 62.5 g ai/ha): 85 | AMBEL phytotoxicity rating (0-100 scale) [15, 27]: 85 | AMBEL phytotoxicity rating (0-100 scale) [15, 28]: 90 | SETVI phytotoxicity rating (0-100 scale) ([16]; 31.3 g ai/ha): 100 | SETVI phytotoxicity rating (0-100 scale) ([16]; 62.5 g ai/ha): 100 | SETVI phytotoxicity rating (0-100 scale) [16, 27]: 100 | SETVI phytotoxicity rating (0-100 scale) [16, 28]: 100 | IPOHE phytotoxicity rating (0-100 scale) ([17]; 125 g ai/ha): 100 | IPOHE phytotoxicity rating (0-100 scale) ([17]; 250 g ai/ha): 100 | SORHA phytotoxicity rating (0-100 scale) ([18]; 125 g ai/ha): 80 | SORHA phytotoxicity rating (0-100 scale) ([18]; 250 g ai/ha): 95 | CHEAL phytotoxicity rating (0-100 scale) ([19]; 31.3 g ai/ha): 100 | CHEAL phytotoxicity rating (0-100 scale) ([19]; 62.5 g ai/ha): 100 | CHEAL phytotoxicity rating (0-100 scale) [19, 27]: 100 | CHEAL phytotoxicity rating (0-100 scale) [19, 28]: 100 | DIGSA phytotoxicity rating (0-100 scale) ([20]; 125 g ai/ha): 75 | DIGSA phytotoxicity rating (0-100 scale) ([20]; 250 g ai/ha): 80 | AMARE phytotoxicity rating (0-100 scale) ([21]; 31.3 g ai/ha): 100 | AMARE phytotoxicity rating (0-100 scale) ([21]; 62.5 g ai/ha): 100 | AMARE phytotoxicity rating (0-100 scale) [21, 27]: 100 | AMARE phytotoxicity rating (0-100 scale) [21, 28]: 100 | CASOB phytotoxicity rating (0-100 scale) ([22]; 31.3 g ai/ha): 100 | CASOB phytotoxicity rating (0-100 scale) ([22]; 62.5 g ai/ha): 100 | CASOB phytotoxicity rating (0-100 scale) [22, 27]: 100 | CASOB phytotoxicity rating (0-100 scale) [22, 28]: 100 | ABUTH phytotoxicity rating (0-100 scale) ([23]; 125 g ai/ha): 100 | ABUTH phytotoxicity rating (0-100 scale) ([23]; 250 g ai/ha): 100 | CORN selectivity, phytotoxicity rating (0-100 scale) ([24]; 31.3 g ai/ha): 3 | CORN selectivity, phytotoxicity rating (0-100 scale) ([24]; 62.5 g ai/ha): 10 | CORN crop damage, phytotoxicity rating (0-100 scale) ([24]; 125 g ai/ha): 15 | CORN crop damage, phytotoxicity rating (0-100 scale) ([24]; 250 g ai/ha): 15 | SOY crop damage, phytotoxicity rating (0-100 scale) ([25]; 125 g ai/ha): 99 | SOY crop damage, phytotoxicity rating (0-100 scale) ([25]; 250 g ai/ha): 99 | RICE crop damage, phytotoxicity rating (0-100 scale) ([26]; 125 g ai/ha): 95 | RICE crop damage, phytotoxicity rating (0-100 scale) ([26]; 250 g ai/ha): 98
